Bridge positions count the residues as written; N and C are the ends. Peptide text beside a SMILES is read from it.

The target in the first assay is T1, endothelin receptor (Bos taurus, UniProt P28088).
T1 construct: from tissue; host or cells: bovine cerebellar membrane fraction
T1 sequence (P28088 27-441): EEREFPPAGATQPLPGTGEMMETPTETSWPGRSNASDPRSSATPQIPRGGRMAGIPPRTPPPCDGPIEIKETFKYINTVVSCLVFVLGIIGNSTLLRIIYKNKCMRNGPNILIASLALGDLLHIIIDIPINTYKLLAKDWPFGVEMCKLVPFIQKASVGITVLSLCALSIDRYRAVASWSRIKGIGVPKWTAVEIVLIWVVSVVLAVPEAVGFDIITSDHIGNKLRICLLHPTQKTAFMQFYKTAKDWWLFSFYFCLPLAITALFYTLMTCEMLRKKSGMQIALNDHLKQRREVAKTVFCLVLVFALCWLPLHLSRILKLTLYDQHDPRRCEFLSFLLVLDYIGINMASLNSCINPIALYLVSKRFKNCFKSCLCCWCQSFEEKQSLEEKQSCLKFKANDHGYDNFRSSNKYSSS
Nature of the assay: Endothelin receptor-antagonizing effect: 125I-endothelin-1 binding to bovine cerebellar tissue membrane fraction.
Details: not given
For `C[C@@H]1NC(=O)[C@H]([C@@H](C)O)NC(=O)CNC(=O)[C@H](Cc2c[nH]cn2)NC(=O)[C@H](Cc2c[nH]c3ccccc23)NC(=O)[C@H](CC(N)=O)NC(=O)[C@@H](N)CSSC[C@@H](C(=O)N[C@@H](Cc2c[nH]c3ccccc23)C(=O)N[C@@H](Cc2ccccc2)C(=O)N[C@@H](Cc2ccccc2)C(=O)N[C@@H](CC(N)=O)C(=O)N[C@@H](Cc2ccc(O)cc2)C(=O)N[C@@H](Cc2ccc(O)cc2)C(=O)N[C@@H](Cc2c[nH]c3ccccc23)C(=O)O)NC(=O)[C@@H]2CCCN2C1=O` [Compound I-7] (H-CNWHGTAPCWFFNYYW-OH; disulfide 1-9), the half-inhibitory concentration (IC50) (commonly the point on the concentration scale where inhibition reaches its midpoint) is over 5 µM.

`CC(=O)N[C@H]1CSSC[C@@H](C(=O)N[C@@H](Cc2c[nH]c3ccccc23)C(=O)N[C@@H](Cc2ccccc2)C(=O)N[C@@H](Cc2ccccc2)C(=O)N[C@@H](CC(N)=O)C(=O)N[C@@H](Cc2ccc(O)cc2)C(=O)N[C@@H](Cc2ccc(O)cc2)C(=O)N[C@@H](Cc2c[nH]c3ccccc23)C(=O)O)NC(=O)[C@@H]2CCCN2C(=O)[C@H](C)NC(=O)[C@H]([C@@H](C)O)NC(=O)CNC(=O)[C@H](Cc2c[nH]cn2)NC(=O)[C@H](Cc2c[nH]c3ccccc23)NC(=O)[C@H](CC(N)=O)NC1=O` [Compound I-8] (Ac-CNWHGTAPCWFFNYYW-OH; disulfide 1-9) came in with an IC50 of over 5 µM.

The molecule `C[C@@H]1NC(=O)[C@H]([C@@H](C)O)NC(=O)CNC(=O)[C@H](Cc2c[nH]cn2)NC(=O)[C@H](Cc2c[nH]c3ccccc23)NC(=O)[C@H](CC(N)=O)NC(=O)CNC(=O)C[C@@H](C(=O)O)NC(=O)[C@@H]2CCCN2C1=O` [Compound I-14] (GNWHGTAPD-OH; lactam N-9) gave a half-maximal inhibitory concentration (IC50) of over 1 µM.

`C[C@@H]1NC(=O)[C@H]([C@@H](C)O)NC(=O)CNC(=O)[C@H](Cc2c[nH]cn2)NC(=O)[C@H](Cc2c[nH]c3ccccc23)NC(=O)[C@H](CC(N)=O)NC(=O)CNC(=O)C[C@@H](C(=O)N[C@@H](Cc2c[nH]c3ccccc23)C(=O)O)NC(=O)[C@@H]2CCCN2C1=O` [Compound I-15] (GNWHGTAPDW-OH; lactam N-9) returned an IC50 of over 0.9 µM.

Consider `C[C@@H]1NC(=O)[C@H]([C@@H](C)O)NC(=O)CNC(=O)[C@H](Cc2c[nH]cn2)NC(=O)[C@H](Cc2c[nH]c3ccccc23)NC(=O)[C@H](CC(N)=O)NC(=O)CNC(=O)C[C@@H](C(=O)N[C@@H](Cc2c[nH]c3ccccc23)C(=O)N[C@@H](Cc2ccccc2)C(=O)N[C@@H](Cc2ccccc2)C(=O)N[C@@H](CC(N)=O)C(=O)N[C@@H](Cc2ccc(O)cc2)C(=O)N[C@@H](Cc2ccc(O)cc2)C(=O)N[C@@H](Cc2c[nH]c3ccccc23)C(=O)N[C@@H](CC(N)=O)C(=O)N[C@@H](Cc2ccc(O)cc2)C(=O)N[C@@H](Cc2ccc(O)cc2)C(=O)N[C@@H](Cc2c[nH]c3ccccc23)C(=O)O)NC(=O)[C@@H]2CCCN2C1=O` [Compound I-19] (GNWHGTAPDWFFNYYWNYYW-OH; lactam N-9), for which the IC50 was determined as 0.37 µM.

The molecule `CC[C@H](C)[C@H](NC(=O)[C@H](Cc1c[nH]c2ccccc12)NC(=O)[C@@H]1CC(=O)NCC(=O)N[C@@H](CC(N)=O)C(=O)N[C@@H](Cc2c[nH]c3ccccc23)C(=O)N[C@@H](Cc2c[nH]cn2)C(=O)NCC(=O)N[C@@H]([C@@H](C)O)C(=O)N[C@@H](C)C(=O)N2CCC[C@H]2C(=O)N1)C(=O)N[C@H](C(=O)N[C@@H](Cc1c[nH]c2ccccc12)C(=O)O)[C@@H](C)CC` [Compound I-27] (GNWHGTAPDWIIW-OH; lactam N-9) displayed an IC50 of over 6 µM.

As for `C[C@@H]1NC(=O)[C@H]([C@@H](C)O)NC(=O)CNC(=O)[C@H](Cc2c[nH]cn2)NC(=O)[C@H](Cc2c[nH]c3ccccc23)NC(=O)[C@H](CC(N)=O)NC(=O)CNC(=O)C[C@@H](C(=O)N[C@@H](Cc2c[nH]c3ccccc23)C(=O)N[C@@H](CC(N)=O)C(=O)N[C@@H](Cc2ccc(O)cc2)C(=O)N[C@@H](Cc2ccc(O)cc2)C(=O)N[C@@H](Cc2c[nH]c3ccccc23)C(=O)O)NC(=O)[C@@H]2CCCN2C1=O` [Compound I-32] (GNWHGTAPDWNYYW-OH; lactam N-9), the IC50 was over 0.57 µM.

Molecule `C[C@@H]1NC(=O)[C@H](C)NC(=O)[C@H]([C@@H](C)O)NC(=O)CNC(=O)[C@H](Cc2c[nH]cn2)NC(=O)[C@H](Cc2c[nH]c3ccccc23)NC(=O)[C@H](CC(N)=O)NC(=O)CNC(=O)C[C@@H](C(=O)N[C@@H](Cc2c[nH]c3ccccc23)C(=O)N[C@@H](Cc2ccccc2)C(=O)N[C@@H](Cc2ccccc2)C(=O)N[C@@H](CC(N)=O)C(=O)N[C@@H](Cc2ccc(O)cc2)C(=O)N[C@@H](Cc2ccc(O)cc2)C(=O)N[C@@H](Cc2c[nH]c3ccccc23)C(=O)O)NC1=O` [Compound I-36] (GNWHGTAADWFFNYYW-OH; lactam N-9) yielded an IC50 of over 0.57 µM.

Molecule `CC[C@H](C)[C@H](NC(=O)[C@@H](NC(=O)[C@H](CC(=O)O)NC(=O)[C@H](CCC(N)=O)NC(=O)[C@H](Cc1c[nH]cn1)NC(=O)[C@H](C)NC(=O)[C@H](Cc1ccccc1)NC(=O)[C@H](Cc1ccc(O)cc1)NC(=O)[C@H](CC(C)C)NC(=O)[C@H](Cc1c[nH]c2ccccc12)NC(=O)[C@H](CC(=O)O)NC(=O)[C@@H]1CCCN1C(=O)[C@H](C)NC(=O)[C@@H](NC(=O)CNC(=O)[C@H](Cc1c[nH]cn1)NC(=O)[C@H](Cc1c[nH]c2ccccc12)NC(=O)[C@H](CC(N)=O)NC(=O)CN)[C@@H](C)O)C(C)C)C(=O)N[C@@H](Cc1c[nH]c2ccccc12)C(=O)O` [Compound I-38] showed an IC50 of 0.00033 µM.

The assay is the same for the next values; noted with them: bovine cerebellar tissue membrane fraction.
The molecule `CC[C@H](C)[C@H](NC(=O)[C@H](CC(=O)O)NC(=O)[C@H](CC(C)C)NC(=O)[C@H](Cc1c[nH]cn1)NC(=O)[C@H](C)NC(=O)[C@H](Cc1ccccc1)NC(=O)[C@H](Cc1ccc(O)cc1)NC(=O)[C@@H](NC(=O)[C@H](Cc1c[nH]c2ccccc12)NC(=O)[C@H](CC(=O)O)NC(=O)[C@@H]1CCCN1C(=O)[C@H](C)NC(=O)[C@@H](NC(=O)CNC(=O)[C@H](Cc1c[nH]cn1)NC(=O)[C@H](Cc1c[nH]c2ccccc12)NC(=O)[C@H](CC(N)=O)NC(=O)CN)[C@@H](C)O)C(C)C)C(=O)N[C@H](C(=O)N[C@@H](Cc1c[nH]c2ccccc12)C(=O)O)[C@@H](C)CC` [Compound I-26] gave an IC50 of under 0.00013 µM.

`CC(C)[C@H](NC(=O)[C@H](Cc1c[nH]c2ccccc12)NC(=O)[C@@H]1CC(=O)NCC(=O)N[C@@H](CC(N)=O)C(=O)N[C@@H](Cc2c[nH]c3ccccc23)C(=O)N[C@@H](Cc2c[nH]cn2)C(=O)NCC(=O)N[C@@H]([C@@H](C)O)C(=O)N[C@@H](C)C(=O)N2CCC[C@H]2C(=O)N1)C(=O)N[C@@H](Cc1ccc(O)cc1)C(=O)N[C@@H](Cc1ccccc1)C(=O)N[C@@H](C)C(=O)N[C@@H](Cc1ccccc1)C(=O)N[C@@H](Cc1ccccc1)C(=O)N[C@@H](CC(N)=O)C(=O)N[C@@H](Cc1ccc(O)cc1)C(=O)N[C@@H](Cc1ccc(O)cc1)C(=O)N[C@@H](Cc1c[nH]c2ccccc12)C(=O)O` [Compound I-33] (GNWHGTAPDWVYFAFFNYYW-OH; lactam N-9): the IC50 was over 0.04 µM.

The molecule `CC[C@H](C)[C@H](NC(=O)[C@H](CC(=O)O)NC(=O)[C@H](CC(C)C)NC(=O)[C@H](Cc1c[nH]cn1)NC(=O)[C@H](C)NC(=O)[C@H](Cc1c[nH]c2ccccc12)NC(=O)[C@@H]1CC(=O)NCC(=O)N[C@@H](CC(N)=O)C(=O)N[C@@H](Cc2c[nH]c3ccccc23)C(=O)N[C@@H](Cc2c[nH]cn2)C(=O)NCC(=O)N[C@@H]([C@@H](C)O)C(=O)N[C@@H](C)C(=O)N2CCC[C@H]2C(=O)N1)C(=O)N[C@H](C(=O)N[C@@H](Cc1c[nH]c2ccccc12)C(=O)O)[C@@H](C)CC` [Compound I-35] (GNWHGTAPDWAHLDIIW-OH; lactam N-9 (inferred); C-terminus assumed) came in with a 50% inhibitory concentration (IC50) of over 0.051 µM.

`CC[C@H](C)[C@H](NC(=O)[C@H](CC(=O)O)NC(=O)[C@H](CC(C)C)NC(=O)[C@H](Cc1c[nH]cn1)NC(=O)[C@H](C)NC(=O)[C@H](Cc1ccc(O)cc1)NC(=O)[C@H](Cc1ccc(O)cc1)NC(=O)[C@@H](NC(=O)[C@H](Cc1c[nH]c2ccccc12)NC(=O)[C@H](CC(=O)O)NC(=O)[C@@H]1CCCN1C(=O)[C@H](C)NC(=O)[C@@H](NC(=O)CNC(=O)[C@H](Cc1c[nH]cn1)NC(=O)[C@H](Cc1c[nH]c2ccccc12)NC(=O)[C@H](CC(N)=O)NC(=O)CN)[C@@H](C)O)C(C)C)C(=O)N[C@H](C(=O)N[C@@H](Cc1c[nH]c2ccccc12)C(=O)O)[C@@H](C)CC` [Compound I-37] came in with an IC50 of 0.00083 µM.

In turn, `CC[C@H](C)[C@H](NC(=O)[C@H](CC(N)=O)NC(=O)[C@H](Cc1ccc(O)cc1)NC(=O)[C@H](Cc1ccc(O)cc1)NC(=O)[C@H](CC(N)=O)NC(=O)[C@H](Cc1ccccc1)NC(=O)[C@H](Cc1ccccc1)NC(=O)[C@H](Cc1c[nH]c2ccccc12)NC(=O)[C@@H]1CC(=O)NCC(=O)N[C@@H](CC(N)=O)C(=O)N[C@@H](Cc2c[nH]c3ccccc23)C(=O)N[C@@H](Cc2c[nH]cn2)C(=O)NCC(=O)N[C@@H]([C@@H](C)O)C(=O)N[C@@H](C)C(=O)N2CCC[C@H]2C(=O)N1)C(=O)N[C@H](C(=O)N[C@@H](Cc1c[nH]c2ccccc12)C(=O)O)[C@@H](C)CC` [Compound I-39] (GNWHGTAPDWFFNYYNIIW-OH; lactam N-9) gave an IC50 of over 0.072 µM.

On to `CC[C@H](C)[C@H](NC(=O)[C@H](CC(=O)O)NC(=O)[C@H](CC(C)C)NC(=O)[C@H](Cc1c[nH]cn1)NC(=O)[C@H](C)NC(=O)[C@H](Cc1ccc(O)cc1)NC(=O)[C@H](Cc1ccc(O)cc1)NC(=O)[C@H](CC(N)=O)NC(=O)[C@H](Cc1ccccc1)NC(=O)[C@H](Cc1ccccc1)NC(=O)[C@H](Cc1c[nH]c2ccccc12)NC(=O)[C@@H]1CC(=O)NCC(=O)N[C@@H](CC(N)=O)C(=O)N[C@@H](Cc2c[nH]c3ccccc23)C(=O)N[C@@H](Cc2c[nH]cn2)C(=O)NCC(=O)N[C@@H]([C@@H](C)O)C(=O)N[C@@H](C)C(=O)N2CCC[C@H]2C(=O)N1)C(=O)N[C@H](C(=O)N[C@@H](Cc1c[nH]c2ccccc12)C(=O)O)[C@@H](C)CC` [Compound I-40] (GNWHGTAPDWFFNYYAHLDIIW-OH; lactam N-9 (inferred); C-terminus assumed), for which the concentration for half-maximal inhibition (IC50) is over 0.045 µM.

Source of the values: patent US6642355B2, “Endothelin-antagonizing peptide” (priority 1991, dated 2003).
